“Also recorded” adds a separate entry of the source. Like-named read-outs stand apart in the source and are kept apart here. One block for each molecule: values may come before it.
Assays:
[1] = tested on: Ishikawa cells; assay: Ishikawa cell count (endometrial proliferation); assay type: cell-based, human; settings: 1 nM E2 or 1 μM antiestrogen, 144 h
[2] = tested on: Ishikawa endometrial cells; assay: Alkaline phosphatase (AP) assay in Ishikawa cells; assay type: cell-based, human; settings: 72 h; for AP1 Induction: 1 nM E2 or 1 μM compound, absorbance at 405 nm, mean + std. dev., n = 3-9
Source text: SERM enhancement of ERα accumulation in breast cancer cells correlates with uterotrophic activities[22],[30]. Despite the inclusion of side arms from known SERDs, most T6Is appeared SERM-like in breast cancer cells as they increased ERα levels. To measure the SERM-agonist activities of the T6Is, we employed an AP activity assay in Ishikawa endometrial cells[22],[32],[40]. […] Many T6Is show unexpected AP activities in these cells. […] Therefore, we would expect these SERMs to show a greater induction of AP (Supplementary Fig. 5). […] This difference was significant (p = 0.004) compared to 4OHT, which measured 0.68 ± 0.12 absorbance units. In most studies of SERM-agonist activities, AP assays are combined with increases in uterine wet-weight in vivo[22],[41],[42].
AP assays were performed as described. Briefly, 15,000 Ishikawa cells were seeded into 96-well plates then placed in serum-starved medium for 48–72 h. Cells were treated for three days with veh, hormone, SERM, or SERD. The media was aspirated and the cells were frozen at −80 °C for at least 24 h. Cells were thawed then incubated with p-nitrophenyl phosphate (ThermoFisher) chromogenic AP substrate. After 60 min at 40 °C, absorbance was read at 405 nm on a BioTek Cytation 5 plate reader.

[3] = tested on: transcriptome of T47D breast cancer cells; assay: RNA sequencing of T47D cells; assay type: cell-based
Description: We next used RNA transcriptomic analysis (RNAseq) to identify differentially affected genes. […] All sequencing runs were performed with three replicates per treatment.
T47D breast cancer cells were grown in 6-well dishes at 50,000 cells per well. […] After 24 h, they were placed in serum-starved media for 48 h. […] RNA was isolated using a Qiagen RNeasy Kit then sent to Novogene for sequencing and bioinformatics analysis.

[4] = tested on: gene expression in T47D breast cancer cells; assay: qPCR gene expression in T47D cells; assay type: cell-based; settings: 1 μM + 1 nM E2, 16 h
[5] = tested on: gene expression in MCF7:WS8 breast cancer cells; assay: qPCR gene expression in MCF7:WS8 cells
[6] = tested on: patients with advanced disease with prior hormone therapy; settings: compared to standard of care ref 6, cited from earlier work
[7] = biological target: T1, ERα (Homo sapiens, UniProt P03372); assay: ERE transcriptional reporter gene assay in MCF7 cells; assay type: cell-based; design: endogenous in cells; host or cells: MCF7 cells with 3x-ERE-GFP reporter
T1 sequence (P03372 1-595): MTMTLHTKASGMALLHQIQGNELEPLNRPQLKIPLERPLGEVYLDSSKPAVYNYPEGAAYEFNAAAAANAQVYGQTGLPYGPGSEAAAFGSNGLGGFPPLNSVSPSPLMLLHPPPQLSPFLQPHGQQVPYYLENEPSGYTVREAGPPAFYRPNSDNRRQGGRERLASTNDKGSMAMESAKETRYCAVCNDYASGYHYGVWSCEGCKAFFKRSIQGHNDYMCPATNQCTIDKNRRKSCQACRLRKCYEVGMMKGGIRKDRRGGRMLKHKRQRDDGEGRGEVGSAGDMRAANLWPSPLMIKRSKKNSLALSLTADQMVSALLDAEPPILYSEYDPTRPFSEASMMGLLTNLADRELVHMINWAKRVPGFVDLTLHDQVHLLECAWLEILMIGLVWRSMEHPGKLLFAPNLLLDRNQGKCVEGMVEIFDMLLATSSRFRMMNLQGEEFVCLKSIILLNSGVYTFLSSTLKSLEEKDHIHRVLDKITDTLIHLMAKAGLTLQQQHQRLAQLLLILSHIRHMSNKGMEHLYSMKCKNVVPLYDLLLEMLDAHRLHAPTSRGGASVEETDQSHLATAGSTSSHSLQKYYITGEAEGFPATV
Description: A cyclopropyl group was used in place of RAD1901’s ethylamine. […] We initially synthesized 4 derivatives comprised of different pharmacophores on the analogous steroidal A ring (Fig. 2d) and used an ERE reporter gene assay in MCF7 breast cancer cells to measure their transcriptional inhibitory activities.
This assay was performed in accordance with a previous report. MCF7 breast cancer cells with a 3x-estrogen response element-green fluorescent protein (GFP) reporter gene construct under a CMV promoter were plated in 96-well dishes at 3000 cells per well. Cells were cultured for 48 h in stripped media that included charcoal stripped fetal bovine serum (FBS). Cells were treated with increasing concentrations of antiestrogen (5 pm to 1 µM) for 24 h. Subsequently, percent GFP-positive cells were imaged using a BioTek Cytation 5 live cell imager. All assays were performed three times with three technical replicates each.

[8] = tested on: T47D breast cancer cells; assay: Cellular proliferation (label-free cell count), T47D; assay type: cell-based; settings: 1 nM E2, normalized to vehicle
Description: In addition, we used a crystal violet assay to measure the effect of T6I-14-1 on MCF7 viability.
MCF7, MCF7:WS:8, Y537S ESR1 MCF7 and T47D breast cancer cell lines were grown in 96-well dishes at a starting cell count of 1000 cells per well. […] Cells were grown in a BioSpa attached to a BioTek Cytation 5 and were automatically counted every twelve hours for 7–10 days or until the E2-only wells reached confluence. Media was replaced every 4 days and drug was maintained in each media change. Each study was repeated three times with three technical replicates each.

[9] = biological target: T1, ERα; assay: In-cell Western of ERα levels in MCF7:WS8 cells; assay type: cell-based; design: endogenous in cells; settings: MCF7:WS8, 1 μM, 24 h, compared to 4OHT
Source text: SERMs and SERDs differentially affect ERα cellular lifetime/accumulation, which correlates with tissue-specific partial agonistic activities. SERMs increase WT ERα lifetime and are partial agonists in the bone and uterine epithelium by maintaining AF-1-dependent transcriptional coactivator recruitment. SERDs induce rapid WT ERα degradation and are pure antagonists[14],[17],[19],[22],[33]. […] We used an in-cell Western approach to measure how a subset of T6Is affected ERα levels in MCF7:WS8 breast cancer cells. […] A live cell halo-tagged ERα assay was then used to measure the impact of an expanded set of T6Is on receptor accumulation in T47D breast cancer cells after 24 h treatment. […] The difference between T6I-14 and 4OHT was not statistically significant in this assay. […] The IC50 values generally trended with observed differences in transcriptional IC50 (Fig. 2), while the effect at maximum dose varied greatly.
In-cell Western analysis was performed in a similar manner as previously described. Briefly, T47D or MCF7:WS8 breast cancer cells were grown in blackout 96-well plates starting at 3000 cells per well. After 24 h, cells were placed in serum-starved media and allowed to acclimate for 48–72 h. Cells were treated with hormone, SERM, or SERD alongside vehicle control for 24 h. […] All data were collected on a LI-COR Odyssey DLx and analyzed using Emperia Studio. […]

[10] = MCF7, 1 nM E2, read-out: Log(IC50) (converted)

SMILES: CC/C(=C(\c1ccc(O)cc1)c1ccc(OCCN(C)C)cc1)c1ccccc1 [4OHT, 4-hydroxytamoxifen, reference compound]
- Ishikawa cell count [1]: marginal but insignificant increase to cell count
- AP1 Induction [2]: 0.67 + 0.12
- AP induction (in words) ([2]; 1 μM): robust stimulation of AP activity

SMILES: C[C@]12CC[C@@H]3c4ccc(O)cc4CC[C@H]3[C@@H]1CC[C@@H]2O [E2, 17β-estradiol]
- SUMO-related differentially expressed genes (RNAseq) [3]: downregulates SUMO1 and upregulates desumoylating enzymes including SENP1 and SENP8
- Ishikawa cell count [1]: robust enhancement of proliferation

SMILES: Oc1ccc2c(c1)CC[C@H](c1ccccc1)[C@@H]2c1ccc(OCCN2CCCC2)cc1 [Laso, lasofoxifene]
- AP1 Induction [2]: 0.51 + 0.16
- AP activity ([2]; 1 μM): 0.51 ± 0.16 absorbance units
- CDK1 mRNA [4]: slightly upregulated CDK1
- RPS6KL1 mRNA [4]: only slightly enriched
- cMYC mRNA ([5]; MCF7:WS8, 1 μM + 1 nM E2): upregulated cMYC but it was significantly less (p = 0.02) than T6I-29-1A

SMILES: CCNCCc1ccc(CN(CC)c2cc(OC)ccc2[C@@H]2CCc3cc(O)ccc3C2)cc1 [RAD1901, elacestrant]
- reduced risk of disease progression or death ([6]; all patients): 30%
- reduced risk of disease progression or death ([6]; patients with ESR1 mutations, including the Y537S): 45%
- AP1 Induction [2]: 0.28 + 0.08
- CDK1 mRNA [4]: slightly upregulated CDK1
- RPS6KL1 mRNA [4]: only slightly enriched
- CDK1 mRNA ([5]; MCF7:WS8): downregulated its expression

- IC50 [7, 10]: 170 nM
SMILES: O=C(CC(F)(F)F)N1C(c2ccc(OCCN3CCCC3)cc2)c2ccc(O)cc2CC12CC2 (stereo not drawn) [T6I-1C]

- IC50 [7, 10]: 123 nM
- IC50 ([7]; MCF7, 1 nM E2, read-out: anti-transcriptional IC50): ~100 nM
SMILES: O=C(c1ccccc1)N1C(c2ccc(OCCN3CCCC3)cc2)c2ccc(O)cc2CC12CC2 (stereo not drawn) [T6I-1D]

SMILES: CCN1CC(COc2ccc(C3c4ccc(O)cc4CC4(CC4)N3C(=O)c3ccccc3)cc2)C1 (stereo not drawn) [T6I-3]
- anti-proliferative activity, cell count after 7 days (Fig. 7) [8]: did not improve anti-proliferative activities
- AP1 Induction [2]: 0.34 + 0.07

SMILES: O=C(c1ccccc1)N1C(c2ccc(OCC3CN(CCCF)C3)cc2)c2ccc(O)cc2CC12CC2 (stereo not drawn) [T6I-4A]
- AP1 Induction [2]: 0.69 + 0.16
- AP induction (in words) ([2]; 1 μM): significant induction of AP compared to the propylazetidine-containing T6I-4

SMILES: O=C(c1ccccc1)N1C(c2ccc(OCC3CN(CCCCl)C3)cc2)c2ccc(O)cc2CC12CC2 (stereo not drawn) [T6I-4B]
- AP1 Induction [2]: 0.61 + 0.10
- AP induction (in words) ([2]; 1 μM): significant induction of AP compared to the propylazetidine-containing T6I-4

SMILES: CCCN1CC(COc2ccc(C3c4ccc(O)cc4CC4(CC4)N3C(=O)c3ccccc3)cc2)C1 (stereo not drawn) [T6I-4]
- AP1 Induction [2]: 0.24 + 0.07
- AP induction (in words) ([2]; 1 μM): AP induction similar to a SERD; also recorded: no measurable AP1 activity

- ERα levels by in-cell Western [9]: significant enhancement
SMILES: CCCN1CCC(COc2ccc(C3c4ccc(O)cc4CC4(CC4)N3C(=O)c3ccccc3)cc2)C1 (stereo not drawn) [T6I-14]

SMILES: CCCCN1CCC(COc2ccc(C3c4ccc(O)cc4CC4(CC4)N3C(=O)c3ccccc3)cc2)C1 (stereo not drawn) [T6I-22]
- AP1 Induction [2]: 0.55 + 0.06

SMILES: CCCCCN1CCC(COc2ccc(C3c4ccc(O)cc4CC4(CC4)N3C(=O)c3ccccc3)cc2)C1 (stereo not drawn) [T6I-23]
- AP1 Induction [2]: 0.44 + 0.08

SMILES: O=C(c1ccccc1)N1C(c2ccc(OCC3CCN(CCCF)C3)cc2)c2ccc(O)cc2CC12CC2 (stereo not drawn) [T6I-29]
- anti-proliferative activity, cell count after 7 days (Fig. 7) [8]: slightly improved efficacy versus propyl alone
- AP1 Induction [2]: 0.63 + 0.08
- AP induction (in words) ([2]; 1 μM): greater induction of AP1 compared to its separated chiral species

SMILES: CCCN1CCC(CCc2ccc(C3c4ccc(O)cc4CC4(CC4)N3C(=O)c3ccccc3)cc2)C1 (stereo not drawn) [T6I-Me]
- AP1 Induction [2]: 0.57 + 0.08

SMILES: CCCN1CCC(CNc2ccc(C3c4ccc(O)cc4CC4(CC4)N3C(=O)c3ccccc3)cc2)C1 (stereo not drawn) [T6I-NH]
- AP1 Induction [2]: 0.50 + 0.09

SMILES: CCCN1CCC(CSc2ccc(C3c4ccc(O)cc4CC4(CC4)N3C(=O)c3ccccc3)cc2)C1 (stereo not drawn) [T6I-SH]
- AP1 Induction [2]: 0.42 + 0.07

From article PMC9748900, “Unconventional isoquinoline-based SERMs elicit fulvestrant-like transcriptional programs in ER+ breast cancer cells” (NPJ Breast Cancer, 2022)
